Here are results for one molecule from paper PMC4976316, “A pivotal role of vacuolar H^+-ATPase in regulation of lipid production in Phaeodactylum tricornutum” (Scientific Reports, 2016).

This assay concerns the target T1, Vacuolar H^+-ATPase (V-ATPase) (Phaeodactylum tricornutum, UniProt B7G3I2+B7GCN4).
T1 construct: gene PHATRDRAFT_16442; native complex in microsomal membrane protein from algal cells, not purified; subunit genes not identified; with V-type proton ATPase subunit a; V-type proton ATPase catalytic subunit A; V-type proton ATPase subunit B; V-type proton ATPase subunit C; V-type proton ATPase subunit D; V-type proton ATPase subunit E; V-type proton ATPase subunit F; V-type proton ATPase subunit G; V-type proton ATPase subunit H; V-type proton ATPase subunit d
Description: concanamycin A-sensitive ATPase activity (phosphate release) of microsomal membranes. Type of assay: cell-based. Particulars: 100 nM BFA1 added to the growing culture, enzyme assayed afterwards in microsomes; days-long treatment, indirect effects possible.

For the molecule `CO/C1=C\C(C)=C\[C@@H](C)[C@@H](O)[C@@H](C)C/C(C)=C/C=C/[C@H](OC)[C@@H]([C@@H](C)[C@@H](O)[C@H](C)[C@@]2(O)C[C@@H](O)[C@H](C)[C@@H](C(C)C)O2)OC1=O` [BFA1, bafilomycin A1], the “% decrease of V-ATPase activity at 100 nM” value was ~ 66%.
